Measurements taken from patent US10987349B2, “Antitumor agent and bromodomain inhibitor” (FUJIFILM Corporation, priority 2016, dated 2021).

Tests used:
BRD2 BD1 = target: T1, BRD2 BD1 (Homo sapiens, UniProt P25440); assay: Binding assay, BRD2 BD1 to acetylated histone H4 Peptide-Biotin (EPIgeneous Binding Domain Kit A); settings: test compound at 300 nmol/L; read-out: Binding inhibition percentage BRD2 BD1
T1 construct: BRD2 BD1, BRD3 BD1 and BRD4 BD1 (Cisbio); purchased Cisbio
Experimental: (§1) BRD2 BD1, BRD3 BD1 and BRD4 BD1 (Cisbio), [Lys(Ac)5/8/12/16]-Histone H4(1-25)-GSGSK (Biotin) (hereinafter referred to as “Peptide-Biotin,” AnaSpec), and EPIgeneous (registered trademark) Binding Domain Kit A (Cisbio) were used to carry out an assay. That is to say, per well, 4 μL of BRD2 BD1, BRD3 BD1 or BRD4 BD1, which was adjusted to 20 nmol/L with Diluent buffer; 4 μL of 25 nmol/L Peptide-Biotin; 2 μL of Dilution buffer (Cisbio) containing dimethyl sulfoxide (DMSO) or a test compound that was serially diluted with DMSO; 5 μL of 2.5 nmol/L Streptavidin-d2; and 5 μL of Anti-Gst-Eu+^3+ Cryptate Conjugate 50-fold diluted with Detection Buffer were added to a 384-well plate (Corning).
(§2) The obtained mixture was left at rest at room temperature for 20 hours, and thereafter, the fluoresence intensity at 665 nm and 620 nm was measured using Envision plate reader (Perkin Elmer), so that the inhibition percentage (%) of the test compound against the binding of a bromodomain in a bromodomain-containing protein to Peptide-Biotin was calculated. Binding inhibition percentage (%)=[1−{(fluorescence intensity at 665 nm of test compound−added well)/(fluorescence intensity at 620 nm of test compound−added well)}/{(fluorescence intensity at 665 nm of DMSO−added well)/(fluorescence intensity at 665 nm of DMSO−added well)}]×100
(§3) Moreover, using Graphpad prism 5 (GraphPad software), 50% inhibitory concentration [IC50 (nmol/L)] was calculated according to a non-linear regression analysis (log (inhibitor) vs. response—Variable slope (four parameters)).
(§4) Regarding other test compounds, each compound was diluted with DMSO to a final concentration of 300 nmol/L by the same method as that described above, and the binding inhibition percentage (%) of each test compound at 300 nmol/L against the binding of bromodomain in a bromodomain-containing protein to acetylated histone was calculated.

BRD2 BD2 = target: T2, BRD2 BD2 (Homo sapiens, UniProt P25440); assay: Binding assay, BRD2 BD2 to acetylated histone H4 Peptide-Biotin (EPIgeneous Binding Domain Kit B); settings: test compound at 300 nmol/L; read-out: Binding inhibition percentage BRD2 BD2
T2 construct: BRD2 BD2, BRD3 BD2 and BRD4 BD2 (Cisbio); purchased Cisbio
T2 sequence (P25440 344-453 limits assumed): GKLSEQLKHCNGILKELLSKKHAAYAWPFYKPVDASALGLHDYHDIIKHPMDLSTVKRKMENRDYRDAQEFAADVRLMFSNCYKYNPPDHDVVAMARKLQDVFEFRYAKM
Experimental: (§5) Moreover, BRD2 BD2, BRD3 BD2 and BRD4 BD2 (Cisbio), Peptide-Biotin (AnaSpec), and EPIgeneous (registered trademark) Binding Domain Kit B (Cisbio) were used to carry out an assay. That is, per well, 4 μL of BRD2 BD2, BRD3 BD2 or BRD4 BD2, which was adjusted to 20 nmol/L with Diluent buffer; 4 μL of 250 nmol/L Peptide-Biotin; 2 μL of Dilution buffer (Cisbio) containing DMSO or a test compound that was serially diluted with DMSO; 5 μL of 25 nmol/L Streptavidin-XL665; 5 μL of Anti-Gst-Eu+^3+ Cryptate Conjugate 50-fold diluted with Detection Buffer were added to a 384-well plate (Corning).
as §2, §3, §4

BRD3 BD1 = target: T3, BRD3 BD1 (Homo sapiens, UniProt Q15059); assay: Binding assay, BRD3 BD1 to acetylated histone H4 Peptide-Biotin (EPIgeneous Binding Domain Kit A); settings: test compound at 300 nmol/L; read-out: Binding inhibition percentage BRD3 BD1
T3 construct: BRD2 BD1, BRD3 BD1 and BRD4 BD1 (Cisbio); purchased Cisbio
T3 sequence (Q15059 34-140 limits assumed): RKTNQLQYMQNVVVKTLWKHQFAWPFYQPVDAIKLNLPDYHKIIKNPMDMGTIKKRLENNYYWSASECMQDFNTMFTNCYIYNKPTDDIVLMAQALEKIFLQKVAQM
Experimental: as §1, §2, §3, §4

BRD3 BD2 = target: T4, BRD3 BD2 (Homo sapiens, UniProt Q15059); assay: Binding assay, BRD3 BD2 to acetylated histone H4 Peptide-Biotin (EPIgeneous Binding Domain Kit B); settings: test compound at 300 nmol/L; read-out: Binding inhibition percentage BRD3 BD2
T4 construct: BRD2 BD2, BRD3 BD2 and BRD4 BD2 (Cisbio); purchased Cisbio
T4 sequence (Q15059 306-415 limits assumed): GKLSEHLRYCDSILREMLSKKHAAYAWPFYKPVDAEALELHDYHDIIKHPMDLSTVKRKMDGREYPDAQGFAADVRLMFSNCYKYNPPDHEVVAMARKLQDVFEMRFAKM
Experimental: as §5, §2, §3, §4

BRD4 BD1 = target: T5, BRD4 BD1 (Homo sapiens, UniProt O60885); assay: Binding assay, BRD4 BD1 to acetylated histone H4 Peptide-Biotin (EPIgeneous Binding Domain Kit A); settings: test compound at 300 nmol/L; read-out: Binding inhibition percentage BRD4 BD1
T5 construct: BRD2 BD1, BRD3 BD1 and BRD4 BD1 (Cisbio); purchased Cisbio
Experimental: as §1, §2, §3, §4

BRD4 BD2 = target: T6, BRD4 BD2 (Homo sapiens, UniProt O60885); assay: Binding assay, BRD4 BD2 to acetylated histone H4 Peptide-Biotin (EPIgeneous Binding Domain Kit B); settings: test compound at 300 nmol/L; read-out: Binding inhibition percentage BRD4 BD2
T6 construct: BRD2 BD2, BRD3 BD2 and BRD4 BD2 (Cisbio); purchased Cisbio
Experimental: as §5, §2, §3, §4

T1 sequence (P25440 74-180 limits assumed): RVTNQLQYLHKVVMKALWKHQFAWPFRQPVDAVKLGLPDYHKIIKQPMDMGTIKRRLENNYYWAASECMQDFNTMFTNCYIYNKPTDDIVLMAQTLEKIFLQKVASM

| inhibition at 0.3 µM (BRD2 BD1) [%] | inhibition at 0.3 µM (BRD2 BD2) [%] | inhibition at 0.3 µM (BRD3 BD1) [%] | inhibition at 0.3 µM (BRD3 BD2) [%] | inhibition at 0.3 µM (BRD4 BD1) [%] | inhibition at 0.3 µM (BRD4 BD2) [%] | SMILES |
| --- | --- | --- | --- | --- | --- | --- |
| 52 | 89 | 85 | 91 | 85 | 86 | CCn1c(=O)cc(C2CC2)c2cc(N(C)C(=O)c3ccccc3)ccc21 [Example 2, N-(4-cyclopropyl-1-ethyl-2-oxo-1,2-dihydroquinolin-6-yl)-N-methylbenzamide] |
| 91 | 89 | 94 | 91 | 94 | 89 | CCn1c(=O)cc(N2CCOCC2)c2cc(-n3c(-c4ccccc4)c[nH]c3=O)ccc21 [Example 3, 1-ethyl-4-(morpholin-4-yl)-6-(2-oxo-5-phenyl-2,3-dihydro-1H-imidazol-1-yl)quinolin-2(1H)-one] |
| 93 | 79 | 94 | 67 | 94 | 74 | CCN1CCC(c2cc(=O)n(CC)c3ccc(C(=O)N(C)c4ccccc4)cc23)CC1 [Example 8, 1-ethyl-4-(1-ethylpiperidin-4-yl)-N-methyl-2-oxo-N-phenyl-1,2-dihydroquinoline-6-carboxamide] |
| 44 | 87 | 79 | 92 | 70 | 88 | CCn1c(=O)cc(C(C)C)c2cc(N(C)C(=O)c3ccc(Cl)cc3)ccc21 [Example 16, 4-Chloro-N-(1-ethyl-2-oxo-4-(propan-2-yl)-1,2-dihydroquinolin-6-yl)-N-methylbenzamide] |
| 89 | 86 | 93 | 88 | 94 | 85 | CCn1c(=O)cc(N2CCOCC2)c2cc(-c3cnn(C)c3-c3ccccc3)ccc21 [Example 18, 1-Ethyl-6-(1-methyl-5-phenyl-1H-pyrazol-4-yl)-4-(morpholin-4-yl)quinolin-2(1H)-one] |
| 93 | 88 | 94 | 92 | 95 | 88 | CCn1c(=O)cc(C2CCN(CCO)CC2)c2cc(C(=O)N(C)c3ccc4c(c3)CCCC4)ccc21 [Example 179, 1-ethyl-4-(1-(2-hydroxyethyl)piperidin-4-yl)-N-methyl-2-oxo-N-(5,6,7,8-tetrahydronaphthalen-2-yl)-1,2-dihydroquinoline-6-carboxamide] |
| 81 | 71 | 92 | 80 | 94 | 83 | CCn1c(=O)cc(C2CCN(C(=O)C(C)C)CC2)c2cc(C(=O)N(C)c3ccc(C)cc3)ccc21 [Example 183, 1-ethyl-N-methyl-N-(4-methylphenyl)-4-(1-(2-methylpropanoyl)piperidin-4-yl)-2-oxo-1,2-dihydroquinoline-6-carboxamide] |
| 94 | 87 | 95 | 92 | 94 | 88 | CCn1c(=O)cc(C2CCN(CCO)CC2)c2cc(C(=O)N(C)c3ccc4c(c3)CCCCC4)ccc21 [Example 191] |
| 94 | 82 | 94 | 89 | 95 | 87 | Cc1ccc(N(C)C(=O)c2ccc3c(c2)c(C2CCN(C)CC2)cc(=O)n3C)cc1 [Example 235, N,1-dimethyl-N-(4-methylphenyl)-4-(1-methylpiperidin-4-yl)-2-oxo-1,2-dihydroquinoline-6-carboxamide] |
| 93 | 90 | 95 | 91 | 95 | 90 | CCn1c(=O)cc(C2CC2)c2cc(-n3c(=O)[nH]c(=O)n3-c3ccccc3)ccc21 [Example 248, 1-(4-cyclopropyl-1-ethyl-2-oxo-1,2-dihydroquinolin-6-yl)-2-phenyl-1,2,4-triazolidine-3,5-dione] |
| 74 | 88 | 91 | 92 | 91 | 88 | CCn1c(=O)cc(N2CCOCC2)c2cc(N(C)C(=O)c3ccc(Cl)cc3)ccc21 [Example 250, 4-chloro-N-(1-ethyl-4-(morpholin-4-yl)-2-oxo-1,2-dihydroquinolin-6-yl)-N-methylbenzamide] |
| 82 | 86 | 92 | 90 | 94 | 88 | CCn1c(=O)cc(C2CC2)c2cc(-c3nc(C)nn3-c3ccccc3)ccc21 [Example 252, 4-cyclopropyl-1-ethyl-6-(3-methyl-1-phenyl-1H-1,2,4-triazol-5-yl)quinolin-2(1H)-one] |
| 70 | 87 | 90 | 89 | 92 | 85 | CCn1c(=O)cc(N2CCOCC2)c2cc(N3C(=O)CC[C@H]3c3ccccc3)ccc21 [Example 253, 1-ethyl-4-(morpholin-4-yl)-6-((5S)-2-oxo-5-phenylpyrrolidin-1-yl)quinolin-2(1H)-one] |
| 79 | 89 | 92 | 90 | 94 | 87 | CCn1c(=O)cc(N2CCOCC2)c2cc(-n3ccnc3-c3ccccc3)ccc21 [Example 255, 1-ethyl-4-(morpholin-4-yl)-6-(2-phenyl-1H-imidazol-1-yl)quinolin-2(1H)-one] |
| 84 | 86 | 93 | 92 | 94 | 88 | CCn1c(=O)cc(N2CCOCC2)c2cc(-n3cc(C)nc3-c3ccccc3)ccc21 [Example 256, 1-ethyl-6-(4-methyl-2-phenyl-1H-imidazol-1-yl)-4-(morpholin-4-yl)quinolin-2(1H)-one] |
| 84 | 85 | 92 | 91 | 95 | 88 | CCn1c(=O)cc(N2CCOCC2)c2cc(-c3nccn3-c3ccccc3)ccc21 [Example 257, 1-ethyl-4-(morpholin-4-yl)-6-(1-phenyl-1H-imidazol-2-yl)quinolin-2(1H)-one] |
| 26 | 81 | 67 | 83 | 64 | 72 | CCn1c(=O)cc(N2CCOCC2)c2cc(-c3ccccc3-c3ccccc3)ccc21 [Example 258, 6-(biphenyl-2-yl)-1-ethyl-4-(morpholin-4-yl)quinolin-2(1H)-one] |
| 88 | 87 | 93 | 91 | 94 | 88 | CCn1c(=O)cc(N2CCOCC2)c2cc(-n3c(-c4ccccc4)cn(CCN4CCOCC4)c3=O)ccc21 [Example 260] |
